Experimental data reported in patent publication US20160229835A1, “NOVEL PYRIDYLOXYACETYL TETRAHYDROISOQUINOLINE COMPOUNDS USEFUL AS NAMPT INHIBITORS” (ELI LILLY AND COMPANY, priority 2013, published 2016).

How the values were obtained:
[1] = tested on: NAMPT-mediated NAD+/NMN formation in A2780 tumor cells; assay: Assay for NAD+/NMN Levels in A2780 Cells; assay type: cell-based; conditions: Homo sapiens, A2780, 24 h, 24 hours treatment, averaged
Description: A2780 (the NCI-DCTD Tumor repository) tumor cells, an ovarian cancer cell line, are cultured in RPMI 1640 (SH30255.01, Hyclone) supplemented with 10% FBS. […] FK866 (100 nM) is also included as a positive control for maximum inhibition (100%). Each compound is tested 1-4 times in this assay.
To assess NAD^+/NMN levels in the cell, A2780 cells grown in the above referenced 96-well plates are lysed with RIPA buffer (Pierce) followed by addition of 50 μL of 0.2 N HCl. The resulting cell lysates are incubated at 60° C. for 10 minutes and neutralized with 50 μL of 0.2 N NaOH. After centrifugation at 2000×g for 15 minutes, the supernatants (50 μL) are collected. The NAD^+/NMN assays are described by Putt and Hergenrother (Putt, K. S, and Hergenrother, P. J., An enzymatic assay for poly(ADP-ribose) polymerase-1 (PARP-1) via the chemical quantitation of NAD^+: application to the high-throughput screening of small molecules as potential inhibitors. Analytical Biochemistry, 2004, 326, 78-86) with modifications. The resulting lysates are mixed with 20 μL of 0.2 N KOH and 20 μL of 20% acetophenone, and incubated at 90° C. for 10 minutes followed by addition of 90 μL of formic acid. After incubation at 90° C. for 10 minutes, the resulting preparations are measured for their fluorescence at the excitation and emission wavelength of 360 and 450 nm, respectively as described by Putt and Hergenrother (2004).

[2] = tested on: A2780 cells; assay: A2780 Proliferation Assay ±NAM (Nicotinamide); assay type: cell-based; conditions: Homo sapiens, A2780, 72 h, absence of NAM, read-out: IC50 (proliferation of A2780 cells in the absence of NAM)
Description: The purpose of this assay is to measure the ability of a compound to inhibit proliferation of A2780 cells (the NCI-DCTD Tumor repository) dependent on the NAMPT-mediated NAD^+ formation in the presence or absence of higher concentrations of NAM (10 mM) in vitro. The A2780 cell proliferation assay uses assay-ready frozen cells. To prepare assay-ready frozen A2780 cells, A2780 cells, an ovarian cancer cell line, are cultured in growth media containing RPMI 1640 (Gibco 30-2001) supplemented with 10% FBS, in T-150 flasks for 3-4 days. Cells are then treated with 4 mL of 0.25% (v/v) trypsin for 1 minute (Hyclone SH30042). Trypsin-treated cells are then diluted with 10 mL of growth media, and the cell slurry is gently mixed and then decanted to a centrifuge tube. Cells are counted and then pelleted by centrifugation at 1400 rpm for 5 minutes. After centrifugation the supernatant is removed and the cell pellets are re-suspended in GIBCO® RECOVERY™ Cell Culture Freezing Medium (Invitrogen 12648-010) at 2-5×10^6 cells/mL and then aliquoted at 1 mL volumes into cryovials. Cryovials are stored initially at −80° C. for 16 hours, and then transferred to liquid nitrogen for long term storage.
One day before the planned initiation of compound treatment portion of the assay, one vial of assay ready frozen cells is thawed, and the cells are washed with 50 mL of growth medium. Cells are counted and then diluted to 2.8×10^4 cells/mL and then plated at a rate of 2500 cells/well (90 μL per well) to BD Poly-D-Lysine, 96 well black plates (BD Biocoat 35-4640). Plates are then covered and incubated overnight under 5% CO2 at 37° C. The next day in a separate plate (V bottom Nunc 249946), a ten-point compound dilution series for each compound is prepared in growth media containing 2% DMSO (v/v, 0.2% final) with or without 100 mM NAM (10 mM final). Then 10 μL of compounds after a ten-point series dilution from either 2 or 0.1 μM (depending potency of each compound) to 50 pM or 5 pM (final) are added to the wells of the cell plates. Cell plates are covered and incubated for 72 hours under 5% CO2 at 37° C.
On the day of the viability assessment, one vial of GF-AFC substrate (CELL TITER-FLUOR™ Cell Viability Assay Kit, Promega G6081) is vortexed and the substrate is transferred to one vial of thawed CELL TITER-FLUOR™ Assay Buffer. The resulting CELL TITER-FLUOR™ reagent is then vortexed well to thoroughly dissolve the substrate. The CELL TITER-FLUOR™ reagent is then diluted (1:2) in growth medium and 50 μL of diluted CELL TITER-FLUOR™ reagent is added to each well of the cell plate. The cell plate is covered and incubated under 5% CO2 at 37° C. for 1-3 hours. Finally the cell plates are removed from the incubator and the well fluorescence is measured on an Envision® Multilabel Reader (Perkin Elmer, λeX 355/λem 495). Fluorescence from compound treated wells is compared to the no cell and no compound treatment control wells to calculate percent inhibition. The percent inhibition and ten-point compound concentration data is fit to a four-parameter logistic equation using ACTIVITYBASE 4.0 Equation 205. Each compound is tested 2-4 times in this assay.

SMILES | IC50 [1] [nM] | IC50 [2] [nM]
O=C(CC1CCCCO1)Nc1ccc2c(c1)CCN(C(=O)COc1cccnc1)C2 (single isomer, unassigned; isomer 2) [Example 13, N-[2-[2-(3-Pyridyloxy)acetyl]-3,4-dihydro-1H-isoquinolin-6-yl]-2-tetrahydropyran-2-yl-acetamide (isomer 2)] | ≤ 195 | < 677
CC(c1ccc2c(c1)CCN(C(=O)COc1cccnc1)C2)N1CCN(C(=O)C2CCOCC2)CC1 (single isomer, unassigned; isomer 2) [Example 20, 2-(3-Pyridyloxy)-1-[6-[1-[4-(tetrahydropyran-4-carbonyl)piperazin-1-yl]ethyl]-3,4-dihydro-1H-isoquinolin-2-yl]ethanone (isomer 2)] | ≤ 195 | < 677
O=C(COc1cccnc1)N1CCc2cc(NS(=O)(=O)c3ccccn3)ccc2C1 [Example 3, N-{2-[(Pyridin-3-yloxy)acetyl]-1,2,3,4-tetrahydroisoquinolin-6-yl}pyridine-2-sulfonamide] | ≤ 195 | < 677
O=C(COc1cccnc1)N1CCc2cc(NS(=O)(=O)C3CCOCC3)ccc2C1 [Example 4, N-{2-[(Pyridin-3-yloxy)acetyl]-1,2,3,4-tetrahydroisoquinolin-6-yl}tetrahydro-2H-pyran-4-sulfonamide] | ≤ 195 | < 677
O=C(COc1cccnc1)N1CCc2cc(NS(=O)(=O)CCC(F)(F)F)ccc2C1 [Example 5, 3,3,3-Trifluoro-N-{2-[(pyridin-3-yloxy)acetyl]-1,2,3,4-tetrahydroisoquinolin-6-yl}propane-1-sulfonamide] | ≤ 195 | < 677
O=C(COc1cccnc1)N1CCc2cc(NS(=O)(=O)CC3CC3)ccc2C1 [Example 6, 1-Cyclopropyl-N-{2-[(pyridin-3-yloxy)acetyl]-1,2,3,4-tetrahydroisoquinolin-6-yl}methanesulfonamide] | ≤ 195 | < 677
CC(C)OCCS(=O)(=O)Nc1ccc2c(c1)CCN(C(=O)COc1cccnc1)C2 [Example 7, 2-Isopropoxy-N-[2-[2-(3-pyridyloxy)acetyl]-3,4-dihydro-1H-isoquinolin-6-yl]ethanesulfonamide] | ≤ 195 | < 677
O=C(COc1cccnc1)N1CCc2cc(NS(=O)(=O)C3CCN(C4COC4)CC3)ccc2C1 [Example 8, 1-(Oxetan-3-yl)-N-[2-[2-(3-pyridyloxy)acetyl]-3,4-dihydro-1H-isoquinolin-6-yl]piperidine-4-sulfonamide] | ≤ 195 | < 677
CN1CCC(S(=O)(=O)Nc2ccc3c(c2)CCN(C(=O)COc2cccnc2)C3)CC1 [Example 9, 1-Methyl-N-{2-[(pyridin-3-yloxy)acetyl]-1,2,3,4-tetrahydroisoquinolin-6-yl}piperidine-4-sulfonamide] | ≤ 195 | < 677
O=C(COc1cccnc1)N1CCc2cc(NS(=O)(=O)C3CCN(C(=O)C4CCOCC4)CC3)ccc2C1 [Example 10, N-[2-[2-(3-Pyridyloxy)acetyl]-3,4-dihydro-1H-isoquinolin-6-yl]-1-(tetrahydropyran-4-carbonyl)piperidine-4-sulfonamide] | ≤ 195 | < 677
CCC(C)(O)CC(=O)Nc1ccc2c(c1)CCN(C(=O)COc1cccnc1)C2 (stereo not drawn) [Example 11, 3-Hydroxy-3-methyl-N-[2-[2-(3-pyridyloxy)acetyl]-3,4-dihydro-1H-isoquinolin-6-yl]pentanamide] | ≤ 195 | < 677
CC(O)(CC(=O)Nc1ccc2c(c1)CCN(C(=O)COc1cccnc1)C2)C(F)(F)F (stereo not drawn) [Example 12, 4,4,4-Trifluoro-3-hydroxy-3-methyl-N-[2-[2-(3-pyridyloxy)acetyl]-3,4-dihydro-1H-isoquinlin-6-yl]butanamide] | ≤ 195 | < 677
CC(C)(C)CC(=O)Nc1ccc2c(c1)CCN(C(=O)COc1cccnc1)C2 [Example 14, 3,3-Dimethyl-N-{2-[(pyridin-3-yloxy)acetyl]-1,2,3,4-tetrahydroisoquinolin-6-yl}butanamide] | ≤ 195 | < 677
CC(C)(O)CC(=O)Nc1ccc2c(c1)CCN(C(=O)COc1cccnc1)C2 [Example 15, 3-Hydroxy-3-methyl-N-{2-[(pyridin-3-yloxy)acetyl]-1,2,3,4-tetrahydroisoquinolin-6-yl}butanamide] | ≤ 195 | < 677
O=C(COc1cccnc1)N1CCc2cc(CN3CCN(C(=O)C4CCOCC4)CC3)ccc2C1 [Example 16, 2-(Pyridin-3-yloxy)-1-[6-{[4-(tetrahydro-2H-pyran-4-ylcarbonyl)piperazin-1-yl]methyl}-3,4-dihydroisoquinolin-2(1H)-yl]ethanone] | ≤ 195 | < 677
O=C(CN1CCOCC1)N1CCN(Cc2ccc3c(c2)CCN(C(=O)COc2cccnc2)C3)CC1 [Example 17, 2-(Morpholin-4-yl)-1-[4-({2-[(pyridin-3-yloxy)acetyl]-1,2,3,4-tetrahydroisoquinolin-6-yl}methyl)piperazin-1-yl]ethanone] | ≤ 195 | < 677
CC(C)(O)CC(=O)N1CCN(Cc2ccc3c(c2)CCN(C(=O)COc2cccnc2)C3)CC1 [Example 18, 3-Hydroxy-3-methyl-1-[4-({2-[(pyridin-3-yloxy)acetyl]-1,2,3,4-tetrahydroisoquinolin-6-yl}methyl)piperazin-1-yl]butan-1-one] | ≤ 195 | < 677
O=C(CC1CCOCC1)N1CCN(Cc2ccc3c(c2)CCN(C(=O)COc2cccnc2)C3)CC1 [Example 19, 2-(Pyridin-3-yloxy)-1-[6-{[4-(tetrahydro-2H-pyran-4-ylacetyl)piperazin-1-yl]methyl}-3,4-dihydroisoquinolin-2(1H)-yl]ethanone] | ≤ 195 | < 677
